# Source: patent US9040713B2, “Methods of managing blood sugar levels and compositions related thereto” (EMORY UNIVERSITY, priority 2010, dated 2015)
# Assays:
# wild-type MEF cells = experiment: [3H] 2-deoxyglucose transport in wild-type MEF cells; format: cell-based, mouse; conditions: insulin 100 nM 15 min or compound 5 μM 30 min
# Protocol: Insulin signaling in the cell lysates were tested by immunoblotting. (B) DDN stimulates glucose uptake. […] [3H]2-deoxyglucose was then added, and the cells were further incubated for 10 min. [3H]2-deoxyglucose uptake by adipocytes was measured by scintillation counting (*: P<0.05 **: P<0.01 vs control, Student's t-test, n=3). (C) DDN synergizes insulin's signaling. […] Cell lysates were then prepared for Western blot using specific antibodies as indicated. […] 3H-2-deoxyglucose was then added, and the cells were further incubated for 10 min. 3H-2-deoxyglucose uptake by adipocytes was measured by scintillation counting (*: P<0.05; **: P<0.01, Student's t-test, n=3). (E) IR is necessary for DDN to induce ERK phosphorylation. Differentiated 3T3-L1 adipocytes were transfected with control siRNA or siRNA against IR. […] Cell lysates were analyzed by Western blot. (F) The glucose uptake induced by DDN in p85α knockout MEF cells. […] The uptake of 3H-2-deoxyglucose was monitored by liquid scintillation counting (*: P<0.05; **: P<0.01 vs control, Student's t-test, n=3).
# (A) 4524-E7 activates IR phosphorylation and its downstream signaling in 3T3-L1 adipocytes. […] The cells were lysed, and immunoprecipitated with PY20, and followed by Western blot using specific antibodies. (B) 4524-E7 stimulates glucose uptake in 3T3-L1 adipocytes. […] [3H]2-deoxyglucose was added, and the cells were further incubated for 10 min. The amount of [3H]2-deoxyglucose taken by adipocytes was measured. (C) 4524-E7 inhibits fatty acid oxidation. […] Results were normalized to DMSO-treated cells and expressed as mean±S.E.M. (*: P<0.05; **:P<0.01, Student's t-test, n=3). (D) IR knockdown in adipocytes decreases IR signaling by 4524-E7. […] Cells lysates were collected and analyzed by Western blot. […] 2-deoxyglucose was monitored by liquid scintillation counter. Results were expressed as mean±S.E.M. (*: P<0.05; **:P<0.01, Student's t-test, n=3).
# NIH 3T3-L1 preadipocytes and MEFs were grown in standard media. […] After neutralization, radioactivity was measured by scintillation counting
# C57BL/6J mice = experiment: Blood glucose level test in C57BL/6J mice; format: in vivo, mouse; conditions: for time until decrease of blood glucose: DDN 20 mg/kg oral, insulin 1 U/kg i.p.
# Protocol: (A) DDN reduces blood glucose in C57BL/6J mice. […] Blood glucose was monitored before and after dosing at various time points as indicated (*: P<0.05, **: P<0.01; ***: P<0.001, n=10-13, Two-way ANOVA vs vehicle). (B) DDN provokes IR phosphorylation and its downstream signaling in C57BL/6J mice. Three month-old C57BL/6J mice were starved for 12 h and then orally administrated with vehicle (0.5% methylcellulose), DDN (20 mg/kg) or 2NH2-NQ (20 mg/kg). Cell lysates were prepared from liver and muscle tissues collected at 3, 4, and 5 h after drug administration and analyzed by immunoprecipitation and immunoblotting. (C) DDN quickly activates IR phosphorylation and its downstream signaling. Three-month-old C57BL/6J mice were starved for 12 h and then injected with vehicle, 5 mg/kg DDN or 5 mg/kg 2NH2-NQ through vena cava. After 5 min, the liver was collected and analyzed by immunobloting using specific antibodies.
# (A) 4524-E7 provokes IR phosphorylation in various tissues of mice. Three-month-old C57BL/6J mice were starved for 12 h and then dosed with vehicle (0.5% methylcellulose) or 4524-E7 (20 mg/kg). Cell lysates from liver, muscle, and WAT were prepared at 3, 4, and 5 h after drug administration and analyzed by immunoblotting. (B) Basal and insulin-stimulated hepatic glucose production rates were measured by hyperinsulinemic-euglycemic clamp. […] (C) Hypoglycemic effect of 4524-E7 in C57BL/6J mice. C57BL/6J mice were starved for 12 h and then orally administrated with vehicle (0.5% methylcellulose) or 4524-E7 (5 mg/kg). Blood glucose was monitored at different time points as indicated (n=8, *: P<0.05, two-way ANOVA). (D) Hypoglycemic effect in db/db mice. db/db mice were starved for 12 h and then orally injected with vehicle (0.5% methylcellulose) or 4524-E7 (5 mg/kg). Blood glucose was monitored at different time points as indicated (n=5, *: P<0.05, two-way ANOVA). (E) Glucose tolerance test in ob/ob mice. The mice were starved for 12 hours and then orally administrated with vehicle or 4524-E7 (5 mg/kg). A bonus of glucose (2 gm/kg) was injected intraperitoneally 1 hour later. Blood glucose was then measured at 30 min intervals (n=13, *: P<0.05; **: P<0.01, two-way ANOVA).
# After a 12 h fasting, C57B5L/6J and db/db mice were bled from the tail vein for a baseline measurement with a glucometer (Accu-Chek; Roche Diagnostics, Indianapolis, Ind.). Afterward, animals were orally administered 5 mg/kg compound in 0.5% methylcellulose through a feeding needle. Blood glucose levels were measured at hourly intervals over 5 h.
Compound,[3H]-2-deoxyglucose uptake (wild-type MEF cells),"blood glucose (C57BL/6J mice; 5 mg/kg single oral administration, 3˜4 h after)","blood glucose as compared to vehicle control (C57BL/6J mice; 20 mg/kg oral, 12 h starved)",time until decrease of blood glucose (C57BL/6J mice)
"O=C1c2ccccc2C(=O)C2SC(Nc3ccc(Cl)cc3)=NC12 (stereo not shown) [4524-E7, 2-((4-chlorophenyl)amino)naphtho[2,3-d]thiazole-4,9(3aH,9aH)-dione]",triggered robust [3H]-2-deoxyglucose uptake,70 % of basal level,–,–
"CC(=O)Oc1ccc(OC(C)=O)c2c1C(=O)C(Cl)=C(Cl)C2=O [DDN, 5,8-diacetyloxy-2,3-dichloro-1,4-naphthoquinone]",triggered robust 3H-deoxyglucose uptake,–,significantly reduced blood glucose,3 h
"insulin: insulin, used as positive control",triggered robust [3H]-2-deoxyglucose uptake,–,–,Thirty min
